The text below walks through data of patent US20060003027A1, “Composition and method for reducing side effects of indole-3-carbinol and derivatives” (priority 2004, published 2006).

Series [1] is described as follows: Side effects observed in treated patients (case reports). Format: in vivo, human. Here is the method:
(§1) This patient was administered a high dosage of I3C, specifically 110 mg/per dose, twice daily. […] A composition (composition 1) in accordance with the present invention was then given to this patient. Composition 1 is as set forth below:
(§2) Composition 3 was then administered to this patient for a period of eight weeks.

Series [2] has as its system HPV-induced benign tumors of laryngeal tissue. Conditions: mouse model; cited from earlier work.
Series [3] deals with mammary carcinogenesis. Conditions: rat model; cited from earlier work.
The subject of series [4] is cervical or vaginal neoplasia. The series can be described thus: Treatment of female patients with coccygeal-area pain and abnormal pap smear (pain, pap smear, biopsy). Format: in vivo, human. The following applies: I3C alone, 110 mg per dose twice daily; Example 1 patient. As for the experimental part:
A patient, and 110 lbs. in weight, has complained of pain in the area of the coccygeal vertebra, which may reflect cervical inflammation, and/or cervical or vaginal neoplasia.
as §1
Composition 2 in accordance with the present invention was administered to the patient. Composition 2 is as set forth below:
as §2

For the compound `OCc1c[nH]c2ccccc12` [Composition I3C, Indole-3-carbinol], in series [1] (I3C alone, 110 mg per dose twice daily, about a week, patient, 110 lbs), the side effects experienced entry was “headache, dizziness and fatigue”. Besides, in series [1] (I3C at 200 mg/day and above 200 mg/day, some people of regular body weight), the undesirable side effects result was “headache, dizziness, stomach disturbance, convulsion, vomiting, and fatigue”. Further, the “growth of HPV-induced benign tumors of laryngeal tissue” value in series [2] was “inhibits growth”. In addition, the “inhibition of mammary carcinogenesis” value in series [3] was “effective in inhibiting mammary carcinogenesis”. In addition, in series [4], the “pain in the area of the coccygeal vertebra” value is given as “relief from the pain”.
